Structures can show the parent of a compound that is named as a salt.

T1 sequence (P50406 whole entry): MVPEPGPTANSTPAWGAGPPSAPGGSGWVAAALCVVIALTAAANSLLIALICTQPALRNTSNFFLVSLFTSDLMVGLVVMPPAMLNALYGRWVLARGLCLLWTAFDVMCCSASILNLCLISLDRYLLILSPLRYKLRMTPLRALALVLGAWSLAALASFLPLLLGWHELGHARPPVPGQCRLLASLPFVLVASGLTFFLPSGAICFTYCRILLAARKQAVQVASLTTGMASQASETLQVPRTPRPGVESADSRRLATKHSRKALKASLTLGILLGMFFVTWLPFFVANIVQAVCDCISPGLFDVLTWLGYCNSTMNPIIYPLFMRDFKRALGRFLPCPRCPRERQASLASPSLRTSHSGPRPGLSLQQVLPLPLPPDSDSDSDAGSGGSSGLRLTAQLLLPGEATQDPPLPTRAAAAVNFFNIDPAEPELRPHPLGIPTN

The test has as its target T1, human cloned 5-HT6 receptors (Homo sapiens, UniProt P50406).
T1 construct: expressed in transfected cells; host or cells: HeLa cells expressing cloned human 5-HT6 receptor (membranes)
The test is described as follows: Cyclase assay (cAMP production in membranes of HeLa 5HT6 cells, 5-HT stimulated). The format is biochemical. Conditions: 5-HT at 4xEC50, functional Ki by Cheng-Prusoff, read-out: pKi values (converted). The protocol:
0.5 μl of test compound in 100% dimethylsulfoxide (DMSO) was added to a white, solid 384 well assay plate (for dose response measurements the top of the concentration range is 7.5 μM final). 10 μl of washed membranes of HeLa 5HT6 cells (for preparation see WO 98/27081) in basic buffer (50 mM HEPES pH 7.4 (KOH), 10 mM MgCl2, 100 mM NaCl, 10 μM 3-isobutyl-1-methylxanthine (IBMX) (Sigma-Aldrich)) was added to all wells followed by 10 μl 2×ATP buffer (i.e. basic buffer containing 3 mM ATP) with 5-HT (at a concentration equivalent to a dose response of 4×EC50). The resultant mixture was then incubated at room temperature for 30-45 minutes to allow cAMP production. cAMP production was then measured using the DiscoveRX™ HitHunter™ chemiluminescence cAMP assay kit (DiscoveRx Corporation, 42501 Albrae Street, Fremont, Calif. 94538; Product Code: 90-0004L) or any other suitable cAMP measurement assay.
IC50 values were estimated from arbitrary designated unit (ADU) measurements from a Perkin Elmer Viewlux instrument using a four parameter logistic curve fit within EXCEL (Bowen, W. P. and Jerman, J. C. (1995), Nonlinear regression using spreadsheets. Trends in Pharmacol. Sci., 16, 413-417). Functional Ki values were calculated using the method of Cheng, Y. C. and Prussof, W. H. (Biochemical Pharmacol (1973) 22 3099-3108). plC50 and fpKi are the negative log 10 of the molar IC50 and functional Ki respectively.
In general terms: Changes in cAMP serve as a functional read-out for many G protein-coupled receptors.
For the compound `CN1CCCC(N2CCc3cc(S(=O)(=O)c4ccccc4)ccc32)CC1` (centres unmarked) [Example E31, 1-(1-Methylhexahydro-1H-azepin-4-yl)-5-(phenylsulfonyl)-2,3-dihydro-1H-indole hydrochloride], the Ki was no more than 10 nM. On to `CN1CCC(N2CCc3cc(S(=O)(=O)c4ccc(F)c(F)c4)ccc32)CC1` [Example E59, 5-[(3,4-Difluorophenyl)sulfonyl]-1-(1-methyl-4-piperidinyl)-2,3-dihydro-1H-indole hydrochloride], for which the Ki was no more than 10 nM. Consider `CCCN1CCC(N2CCc3cc(S(=O)(=O)c4cc(F)ccc4F)ccc32)CC1` [Example E44, 5-[(2,5-Difluorophenyl)sulfonyl]-1-(1-propyl-4-piperidinyl)-2,3-dihydro-1H-indole hydrochloride], for which the Ki is no more than 10 nM. The result for `O=S(=O)(c1cccc(Cl)c1)c1ccc2c(c1)CCN2C1CCNCC1` [Example E24, 5-[(3-Chlorophenyl)sulfonyl]-1-(4-piperidinyl)-2,3-dihydro-1H-indole hydrochloride] reads no more than 10 nM; that for `CC1(N2CCc3cc(S(=O)(=O)c4ccccc4)ccc32)CCNCC1` [Example E7, 1-(4-Methyl-4-piperidinyl)-5-(phenylsulfonyl)-2,3-dihydro-1H-indole hydrochloride], less than 316 nM.

On to `CN1CCC(n2ccc3cc(S(=O)(=O)c4ccccc4)ccc32)CC1` [Example E2, 1-(1-Methyl-4-piperidinyl)-5-(phenylsulfonyl)-1H-indole hydrochloride], for which the Ki was no more than 10 nM. The result for `CCCN1CCC(N2CCc3cc(S(=O)(=O)c4ccccc4F)ccc32)CC1` [Example E46, 5-[(2-Fluorophenyl)sulfonyl]-1-(1-propyl-4-piperidinyl)-2,3-dihydro-1H-indole hydrochloride] reads no more than 10 nM; that for `CN1CCC(N2CCc3cc(S(=O)(=O)c4cccc(F)c4)ccc32)CC1` [Example E47, 5-[(3-Fluorophenyl)sulfonyl]-1-(1-methyl-4-piperidinyl)-2,3-dihydro-1H-indole hydrochloride], no more than 10 nM. For `CC(C)N1CCC(N2CCc3cc(S(=O)(=O)c4ccccc4F)ccc32)CC1` [Example E45, 5-[(2-Fluorophenyl)sulfonyl]-1-[1-(1-methylethyl)-4-piperidinyl]-2,3-dihydro-1H-indole hydrochloride], the Ki is no more than 10 nM. Regarding `CN1CCC(N2CC(C)(C)c3cc(S(=O)(=O)c4ccccc4)ccc32)CC1` [Example E5, 3,3-Dimethyl-1-(1-methyl-4-piperidinyl)-5-(phenylsulfonyl)-2,3-dihydro-1H-indole hydrochloride], the Ki was less than 316 nM. Then `CCN1CCC(N2CCc3cc(S(=O)(=O)c4ccccc4F)ccc32)CC1` [Example E58, 5-[(2-Fluorophenyl)sulfonyl]-1-(1-ethyl-4-piperidinyl)-2,3-dihydro-1H-indole hydrochloride], with no more than 10 nM. The result for `O=S(=O)(c1ccc(Cl)cc1)c1ccc2c(c1)CCN2C1CCNCC1` [Example E13, 5-[(4-Chlorophenyl)sulfonyl]-1-(4-piperidinyl)-2,3-dihydro-1H-indole hydrochloride] reads no more than 10 nM. For `O=S(=O)(c1ccccc1)c1cc(Cl)c2c(c1)CCN2C1CCNCC1` [Example E19a, 7-Chloro-5-(phenylsulfonyl)-1-(4-piperidinyl)-2,3-dihydro-1H-indole hydrochloride], the Ki was no more than 10 nM. `CC(C)CN1CCC(N2CCc3cc(S(=O)(=O)c4ccccc4)ccc32)CC1` [Example E37, 1-[1-(2-Methylpropyl)-4-piperidinyl]-5-(phenylsulfonyl)-2,3-dihydro-1H-indole hydrochloride]: the Ki was no more than 10 nM.

As for `N#Cc1ccccc1S(=O)(=O)c1ccc2c(c1)CCN2C1CCNCC1` [Example E20, 2-{[1-(4-Piperidinyl)-2,3-dihydro-1H-indol-5-yl]sulfonyl}-benzonitrile hydrochloride], the Ki was no more than 10 nM. Take `COc1cccc(S(=O)(=O)c2ccc3c(c2)CCN3C2CCNCC2)c1` [Example E23, 5-{[3-(Methyloxy)phenyl]sulfonyl}-1-(4-piperidinyl)-2,3-dihydro-1H-indole hydrochloride]: the Ki was no more than 10 nM. Consider `O=S(=O)(c1cccc(F)c1)c1ccc2c(c1)CCN2C1CCNCC1` [Example E8, 5-[(3-Fluorophenyl)sulfonyl]-1-(4-piperidinyl)-2,3-dihydro-1H-indole hydrochloride], for which the Ki was no more than 10 nM.

With `O=S(=O)(c1ccc(F)c(F)c1)c1ccc2c(c1)CCN2C1CCNCC1` [Example E25, 5-[(3,4-Difluorophenyl)sulfonyl]-1-(4-piperidinyl)-2,3-dihydro-1H-indole hydrochloride], the Ki was no more than 10 nM. Regarding `CN1CCC(N2CCc3cc(S(=O)(=O)c4ccccc4)ccc32)CC1` [Example E4, 1-(1-Methyl-4-piperidinyl)-5-(phenylsulfonyl)-2,3-dihydro-1H-indole hydrochloride], the Ki is no more than 10 nM. For the compound `CN1CCC(N2CCc3cc(S(=O)(=O)c4cccc(Cl)c4)ccc32)CC1` [Example E53, 5-[(3-Chlorophenyl)sulfonyl]-1-(1-methyl-4-piperidinyl)-2,3-dihydro-1H-indole hydrochloride], the Ki was no more than 10 nM. Take `CN1CCC(N2CCc3cc(S(=O)(=O)c4ccccc4F)ccc32)CC1` [Example E48, 5-[(2-Fluorophenyl)sulfonyl]-1-(1-methyl-4-piperidinyl)-2,3-dihydro-1H-indole hydrochloride]: the Ki was no more than 10 nM. Take `CCCN1CCC(N2CCc3cc(S(=O)(=O)c4ccccc4)ccc32)CC1` [Example E40, 5-(Phenylsulfonyl)-1-(1-propyl-4-piperidinyl)-2,3-dihydro-1H-indole hydrochloride]: the Ki was no more than 10 nM. In the case of `CCN1CCC(N2CCc3cc(S(=O)(=O)c4cccc(F)c4)ccc32)CC1` [Example E55, 5-[(3-Fluorophenyl)sulfonyl]-1-(1-ethyl-4-piperidinyl)-2,3-dihydro-1H-indole hydrochloride], the Ki was no more than 10 nM. `CN1CCC(N2CCc3cc(S(=O)(=O)c4ccccc4)cc(Cl)c32)CC1` [Example E32, 7-Chloro-1-(1-methyl-4-piperidinyl)-5-(phenylsulfonyl)-2,3-dihydro-1H-indole hydrochloride]: the Ki was no more than 10 nM. Then `CN1CCC(N2CCc3cc(S(=O)(=O)c4cc(F)cc(F)c4)ccc32)CC1` [Example E50, 5-[(3,5-Difluorophenyl)sulfonyl]-1-(1-methyl-4-piperidinyl)-2,3-dihydro-1H-indole hydrochloride], with no more than 10 nM. `O=S(=O)(c1ccc2c(c1)CCN2C1CCNCC1)c1cc(F)ccc1F` [Example E27, 5-[(2,5-Difluorophenyl)sulfonyl]-1-(4-piperidinyl)-2,3-dihydro-1H-indole hydrochloride]: the Ki is no more than 10 nM. Take `O=S(=O)(c1cccc(F)c1)c1ccc2c(ccn2C2CCNCC2)c1` [Example E22, 5-[(3-Fluorophenyl)sulfonyl]-1-(4-piperidinyl)-1H-indole hydrochloride]: the Ki was no more than 10 nM. For the compound `O=S(=O)(c1ccccc1)c1ccc2c(c1)CCN2C1CCCNCC1` (centres unmarked) [Example E16a, 1-(Hexahydro-1H-azepin-4-yl)-5-(phenylsulfonyl)-2,3-dihydro-1H-indole], the Ki was no more than 10 nM. With `O=S(=O)(c1ccccc1)c1ccc2c(ccn2C2CCNCC2)c1` [Example E1, 5-(Phenylsulfonyl)-1-(4-piperidinyl)-1H-indole hydrochloride], the Ki was no more than 10 nM. Consider `CN1CCC(N2CCc3cc(S(=O)(=O)c4ccccc4Cl)ccc32)CC1` [Example E49, 5-[(2-Chlorophenyl)sulfonyl]-1-(1-methyl-4-piperidinyl)-2,3-dihydro-1H-indole hydrochloride], for which the Ki is no more than 10 nM. Consider `Cc1nn(C)c(C)c1S(=O)(=O)c1ccc2c(c1)CCN2C1CCNCC1` [Example E29, 1-(4-Piperidinyl)-5-[(1,3,5-trimethyl-1H-pyrazol-4-yl)sulfonyl]-2,3-dihydro-1H-indole hydrochloride], for which the Ki was less than 316 nM. The result for `CCN1CCC(N2CCc3cc(S(=O)(=O)c4ccc(F)c(F)c4)ccc32)CC1` [Example E60, 5-[(3,4-Difluorophenyl)sulfonyl]-1-(1-ethyl-4-piperidinyl)-2,3-dihydro-1H-indole hydrochloride] reads no more than 10 nM; that for `O=S(=O)(c1ccc2c(c1)CCN2C1CCNCC1)c1ccccc1Cl` [Example E12, 5-[(2-Chlorophenyl)sulfonyl]-1-(4-piperidinyl)-2,3-dihydro-1H-indole hydrochloride], no more than 10 nM. Regarding `N#Cc1cccc(S(=O)(=O)c2ccc3c(c2)CCN3C2CCNCC2)c1` [Example E21, 3-{[1-(4-Piperidinyl)-2,3-dihydro-1H-indol-5-yl]sulfonyl}benzonitrile hydrochloride], the Ki is no more than 10 nM. For the compound `CN1CCC(N2CCc3cc(S(=O)(=O)c4ccccc4)ccc32)C1` (centres unmarked) [Example E30, 1-(1-Methyl-3-pyrrolidinyl)-5-(phenylsulfonyl)-2,3-dihydro-1H-indole hydrochloride], the Ki is no more than 10 nM.

These data come from patent US20080318933A1, “5-Sulfonyl-1-Piperidinyl Substituted Indole Derivatives as 5-Ht6 Receptor Antagonists for the Treatment of Cns Disorders” (Glaxo Group Limited, priority 2004, published 2008).
